Results taken from PMC12388506, “Preclinical Evaluation of 2-Aminobenzothiazole Derivatives: In Silico, In Vitro, and Preliminary In Vivo Studies as Diabetic Treatments and Their Complications” (Molecules, 2025).

Legend:
[1] = ABTS assay
Protocol: (§1) All synthesized compounds were evaluated at 30 μM, 50 μM, 70 μM, 90 μM, and 110 μM under two of the most widely used methods in research to directly measure the antioxidant and anti-radical intrinsic capacity, FRAP, and ABTS assay, which were validated by a dose–response curve of 5-ASA as a reference. In the same way, these tests were carried out in triplicate using an assay kit (from Pharmaceutical and Biotechnological Innovation-Services) according to the manufacturer’s instructions.

[2] = tested on: male Wistar rat; assay: Acute oral toxicity, Up and Down procedure (OECD 425); assay type: in vivo; parameters: Heart weight / IWA (initial weight of animals) / FWA (final weight of animals) / Spleen weight / Liver weight / Intestine weight / Stomach weight / Kidney weight: unit not given here
Protocol: All synthesized compounds (8c, 8d, and 12d as a racemic mixture) were suspended in 2% Tween 80 in water and administered orally by an esophageal cannula following the “Up and Down” methodology. Nevertheless, compounds could not be solubilized in the desired volume to complete the highest dose (1750 mg/Kg), so the toxicity test was performed with a maximum dose of 1250 mg/Kg. Even so, the values obtained indicate that these compounds are classified within toxicity category 4 according to the guidelines established by the Organization for Economic Co-operation and Development (OECD).
The “Up and Down” procedure of OECD Guideline 425 was used to estimate the LD50 value of synthesized compounds. Briefly, a dose of 175 mg/Kg was administered to a male Wistar rat, which was monitored continuously for 48 h. As the animal survived, a second animal received a dose of 550 mg/Kg, and, as it survived, a third animal received an increasing dose of 1750 mg/Kg. Finally, two other rats were administered the same dose. All animals were kept under observation for 14 days, and 24 h later, they were taken to the humane endpoint for macroscopic examination of organs and tissues. Finally, the LD50 value of the compounds was estimated to determine their degree of toxicity and classified based on the GHS of Classification and Labeling of Chemicals.

[3] = tested on: STZ-HFD-induced T2D Wistar rats; assay: Ex vivo serum total antioxidant capacity (Trolox equivalent); assay type: in vivo, rat
Protocol: At the end of the study, animals fasted for 12 h and were taken to a humane endpoint, where blood samples were obtained. These were kept at room temperature for 30 min and then centrifuged at 4000 RPM for 15 min at 4 °C. Finally, the serum was used to perform 24-element blood chemistry and quantify Trolox-equivalent TAC [86], TNF-α [87], and IL-6 levels using commercial kits from Merck (Darmstadt, Germany), Sigma-Aldrich (St. Louis, MO, USA), Cat. No. MAK334-1KT, RAB0479-1KT, and RAB0311-1KT, respectively. In addition, insulin was quantified using the Rat Ins1/Insulin ELISA Kit, from Sigma-Aldrich, No. Cat. RAB0904-1KT [89] to determine the HOMA-IR index. All kits were performed according to the manufacturer’s instructions without modifications.

[4] = target: T1, ALR2 enzyme (Homo sapiens, UniProt P15121); assay: ALR2 activity assay kit (ab273276), inhibition; assay type: biochemical;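 on relative ALR2 inhibition: inhibition calculated from the rate of NADPH cofactor consumption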
T1 construct: purchased ab273276
Protocol: The obtained dose–response curve had concentrations of 10 μM, 5 μM, 500 nM, 50 nM, and 5 nM.

[5] = tested on: STZ-HFD-induced T2D Wistar rats; assay: Acute evaluation of blood glucose in STZ-HFD-induced T2D model; assay type: in vivo, rat; conditions: 8d 32 mg/Kg oral
Protocol: In vivo experiments were conducted in an acute and a subchronic model, where Wistar rats (180–220 g) were used. The study covered a total period of 10 weeks and was carried out under the Mexican Standard, and the “Guide for the Care and Use of Laboratory Animals” of the National Research Council and Health Institutes was followed.
At first, animals were housed in polypropylene cages under conditions of controlled temperature (20–25 °C), relative humidity (36–60%), and light/dark cycles, with water ad libitum. Before starting the experiment, they were given a one-week acclimatization period to adapt to their new habitat. Once finalized, animals were fed an HFD for 3 weeks to generate insulin resistance.
After this period, the animals fasted for 12 h and then were administered intraperitoneally with a single dose of 35 mg/Kg of STZ dissolved in a buffer of 0.1 M citrate, pH 4.5 (prepared on the same day of administration). […]
One week after administration, postprandial blood glucose levels were measured by venipuncture using a glucometer. […]
Once the experimental groups were formed, a fixed schedule was established for the daily oral administration of the respective treatments. […] On the third day of treatment, postprandial blood glucose was measured with a glucometer Freestyle® (Abbott Diabetes Care, Alameda, CA, USA), extracting a drop of blood from the caudal vein of each rat. […]

[6] = FRAP assay
Protocol: as §1

[7] = 1250 mg/Kg oral, necropsy, mean ± SEM

For `COC(=O)[C@H](Cc1ccccc1)N/C(=N\c1nc2ccccc2s1)SC` [8d, Methyl (E)-((benzo[d]thiazol-2-ylimino)(methylthio)methyl)-L-phenylalaninate], the “Percentage reduction of radical cation ABTS” value ([1]; 30 µM) was -4.0%, the “Percentage reduction of radical cation ABTS” value ([1]; 50 µM) was -3.0% and the “Percentage reduction of radical cation ABTS” value ([1]; 70 µM) was -4.2%. The “Percentage reduction of radical cation ABTS” value ([1]; 90 µM) was -3.6%, the “Percentage reduction of radical cation ABTS” value ([1]; 110 µM) was -2.5% and the “FWA (final weight of animals)” value ([2]; 1250 mg/Kg oral, after 14 days, mean ± SEM) was 310.57 ± 11.6. The “IWA (initial weight of animals)” value ([2]; 1250 mg/Kg oral, mean ± SEM) was 201.0 ± 7.17, the Heart weight [2, 7] was 1.30 ± 0.03 and the Intestine weight [2, 7] was 29.97 ± 0.72. It also gave a Kidney weight [2, 7] of 2.97 ± 0.03, a Liver weight [2, 7] of 17.57 ± 0.50 and a Spleen weight [2, 7] of 0.67 ± 0.07. The Stomach weight [2, 7] was 1.70 ± 0.10, the “toxicity category (OECD)” value ([2]; maximum dose 1250 mg/Kg oral) was 4 and the “effect on total antioxidant capacity (TAC)” value [3] was “did not improve TAC”. For the same compound, the “TAC Equivalent to Trolox” value ([3]; Table S11, After 5 weeks of treatment) was 79.26 ± 17.28 µM, the “TAC Equivalent to Trolox” value ([3]; serum, end of treatment, mean ± SEM, n = 4) was 79.26 ± 17.28 µM and the “concentrations at which ALR2 was inhibited” value [4] was “below 10 µM”. The “concentration dependence of ALR2 inhibition (IC50 not calculable)” value ([4]; 10 μM to 5 nM) was “did not show a concentration-dependent response”, the “relative ALR2 inhibition” value ([4]; Inhibitor concentration 5 nm) was 93.590% and the “relative ALR2 inhibition” value ([4]; Inhibitor concentration 50 nm) was 91.644%. For the same compound, the “relative ALR2 inhibition” value ([4]; Inhibitor concentration 500 nm) was 86.494%, the “relative ALR2 inhibition” value ([4]; Inhibitor concentration 5000 nm) was 80.389% and the “relative ALR2 inhibition” value ([4]; Inhibitor concentration 10000 nm) was 89.966%. The “blood glucose after a single administration, without prior fasting” value [5] was ~ 200 mg/dL, the “Percentage reduction of ferric ion to ferrous ion (FRAP)” value (from here on “Percentage reduction of ferric ion”) ([6]; 30 µM) was 12.7% and the “Percentage reduction of ferric ion” value ([6]; 50 µM) was 14.1%. The “Percentage reduction of ferric ion” value ([6]; 70 µM) was 15.1%, the “Percentage reduction of ferric ion” value ([6]; 90 µM) was 16.9% and the “Percentage reduction of ferric ion” value ([6]; 110 µM) was 18.4%.
